Measured values published in article PMC3243944 (Biopolymers, 2011).
Where no end group is shown, it is not given here.

Experiments:
[1] = Solubility in aqueous buffer; type: physicochemical
[2] = tested on: 5-helix bundle (5HB) protein construct derived from the hRSV fusion (F) protein; conditions: protein-based (5HB) FP screening assay; cited from earlier work

ISQVNEKINQSLAFIRKSDE [C20]
solubility [1]: < 2000 µg/mL
Binding affinity to the 5HB [2]: low micromolar
